According to ChEMBL document CHEMBL1152626, “Glucose-based spiro-isoxazolines: a new family of potent glycogen phosphorylase inhibitors” (Bioorg Med Chem, 2009):

These compounds were tested against T1, Glycogen phosphorylase, muscle form (Oryctolagus cuniculus, UniProt P00489) (assay: Inhibition of rabbit muscle glycogen phosphorylase b).
T1 sequence (P00489 whole entry): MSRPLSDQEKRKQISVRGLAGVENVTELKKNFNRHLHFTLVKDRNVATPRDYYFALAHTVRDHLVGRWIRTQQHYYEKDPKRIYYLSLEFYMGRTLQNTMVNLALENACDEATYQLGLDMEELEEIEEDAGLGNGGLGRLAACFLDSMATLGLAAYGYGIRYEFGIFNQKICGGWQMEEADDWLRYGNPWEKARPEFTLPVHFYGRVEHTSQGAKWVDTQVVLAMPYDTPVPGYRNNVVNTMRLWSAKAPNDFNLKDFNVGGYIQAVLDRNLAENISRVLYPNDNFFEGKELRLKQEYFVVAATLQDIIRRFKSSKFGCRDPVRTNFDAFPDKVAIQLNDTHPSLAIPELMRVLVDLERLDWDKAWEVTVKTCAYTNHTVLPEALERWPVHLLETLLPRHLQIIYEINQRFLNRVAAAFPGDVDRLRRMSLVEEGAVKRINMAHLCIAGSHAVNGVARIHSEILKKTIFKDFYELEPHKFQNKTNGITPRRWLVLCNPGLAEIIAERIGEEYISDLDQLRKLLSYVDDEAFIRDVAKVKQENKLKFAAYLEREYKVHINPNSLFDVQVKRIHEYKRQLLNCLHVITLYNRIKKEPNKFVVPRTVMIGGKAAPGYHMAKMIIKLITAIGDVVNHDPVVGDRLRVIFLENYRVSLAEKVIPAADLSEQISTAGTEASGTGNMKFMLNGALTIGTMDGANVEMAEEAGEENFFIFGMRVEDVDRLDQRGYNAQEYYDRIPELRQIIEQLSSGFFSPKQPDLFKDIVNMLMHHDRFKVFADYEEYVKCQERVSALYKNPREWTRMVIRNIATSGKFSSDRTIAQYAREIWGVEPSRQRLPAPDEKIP

Ki [µM] | SMILES
1200 | CN1C(=O)N[C@@]2(O[C@H](CO)[C@@H](O)[C@H](O)[C@H]2O)C1=O
39 | O=C1N[C@@]2(O[C@H](CO)[C@@H](O)[C@H](O)[C@H]2O)C(=O)N1O
146 | NN1C(=O)N[C@@]2(O[C@H](CO)[C@@H](O)[C@H](O)[C@H]2O)C1=O
550 | CC(=O)NN1C(=O)N[C@@]2(O[C@H](CO)[C@@H](O)[C@H](O)[C@H]2O)C1=O

More lines, now with the values behind:

SMILES | Ki [µM]
O=C1NC(=O)[C@@]2(N1)OC[C@@H](O)[C@H](O)[C@H]2O | > 11500
O=C1NCC(O)NC12O[C@H](CO)[C@@H](O)[C@H](O)[C@H]2O (some centres undefined) | 59.7
O=C1NC(=O)[C@]2(C[C@H](O)[C@@H]([C@@H](O)CO)O2)N1 | 220000
O=C1NC(=O)[C@@]2(C[C@H](O)[C@@H]([C@@H](O)CO)O2)N1 | 8200
O=C1NC(=S)N[C@@]12OC[C@@H](O)[C@H](O)[C@H]2O | > 10000
